# Molecular target: T1, human ALK5 (Homo sapiens, UniProt P36897)
# T1 construct: human ALK5 (recombinant TGF β1 N-term GST-tagged, 80-end); GST (N); purchased
# T1 sequence (P36897 80-503 limits assumed): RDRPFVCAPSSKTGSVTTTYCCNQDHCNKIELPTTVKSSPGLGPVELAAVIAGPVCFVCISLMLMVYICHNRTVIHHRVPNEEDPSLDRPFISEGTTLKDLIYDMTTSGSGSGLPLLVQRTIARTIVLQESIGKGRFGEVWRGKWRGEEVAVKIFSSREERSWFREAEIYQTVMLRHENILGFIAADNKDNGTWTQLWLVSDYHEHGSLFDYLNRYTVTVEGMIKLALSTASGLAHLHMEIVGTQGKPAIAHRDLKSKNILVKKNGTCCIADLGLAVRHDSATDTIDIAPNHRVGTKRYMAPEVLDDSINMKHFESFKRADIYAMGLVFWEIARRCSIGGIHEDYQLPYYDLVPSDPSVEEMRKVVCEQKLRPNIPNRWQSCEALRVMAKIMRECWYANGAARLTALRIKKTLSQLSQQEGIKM
# Experiment: ADP-GLO Kinases assay of ALK5 enzymatic activity
# Format: biochemical
# Settings: purified recombinant human ALK5, TGFβ1 peptide substrate, pIC50 converted to pKi by Cheng-Prusoff, high ATP protocol (15 μM) for very potent compounds, 25° C.
# Method in brief: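 Purified ALK5 preincubated 15 min with compound, then reacted with substrate and ATP; ADP formed read by ADP-Glo luminescence after 120 min or 60 min reaction, all steps at 25° C. 11-point concentration-response; pIC50 converted to pKi via Cheng-Prusoff.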
row,Ki,Structure (SMILES)
1,0.126 to 0.316 nM,"COC(=O)C1CN(c2nnc(-c3cc(Cl)ccc3F)cc2Nc2ccnc(NC(=O)CCN3CCN(C)CC3)c2)C1 [Example 98, methyl 1-[6-(5-chloro-2-fluorophenyl)-4-({2-[3-(4-methylpiperazin-1-yl)propanamido]pyridin-4-yl}amino)pyridazin-3-yl]azetidine-3-carboxylate]"
2,0.126 to 0.316 nM,"CN1CCN(CCC(=O)Nc2cc(Nc3cc(-c4cc(Cl)ccc4F)nnc3N3CC(C(=O)O)C3)ccn2)CC1 [Example 99, 1-[6-(5-chloro-2-fluorophenyl)-4-({2-[3-(4-methylpiperazin-1-yl)propanamido]pyridin-4-yl}amino)pyridazin-3-yl]azetidine-3-carboxylic acid]"
3,0.126 to 0.316 nM,"CC(C)OC(=O)C1CN(c2nnc(-c3cc(Cl)ccc3F)cc2Nc2ccnc(NC(=O)CCN3CCN(C)CC3)c2)C1 [Example 100, propan-2-yl 1-[6-(5-chloro-2-fluorophenyl)-4-({2-[3-(4-methylpiperazin-1-yl)propanamido]pyridin-4-yl}amino)pyridazin-3-yl]azetidine-3-carboxylate]"
4,≤ 0.1 nM,"CN1CCN(CCC(=O)Nc2cc(Nc3cc(-c4cc(Cl)ccc4F)nnc3NCc3cccc(O)c3)ccn2)CC1 [Example 101, N-(4-{[6-(5-chloro-2-fluorophenyl)-3-{[(3-hydroxyphenyl)methyl]amino}pyridazin-4-yl]amino}pyridin-2-yl)-3-(4-methylpiperazin-1-yl)propanamide]"
5,0.126 to 0.316 nM,"CN1CCN(CCC(=O)Nc2cc(Nc3cc(-c4cc(Cl)ccc4F)nnc3N(C)Cc3cccc(O)c3)ccn2)CC1 [Example 102, N-(4-{[6-(5-chloro-2-fluorophenyl)-3-{[(3-hydroxyphenyl)methyl](methyl)amino}pyridazin-4-yl]amino}pyridin-2-yl)-3-(4-methylpiperazin-1-yl)propanamide]"
6,≤ 0.1 nM,"CN1CCN(CCC(=O)Nc2cc(Nc3cc(-c4cc(Cl)ccc4F)nnc3N(C)CC3CCOC3=O)ccn2)CC1 (stereo not drawn) [Example 108, N-(4-{[6-(5-chloro-2-fluorophenyl)-3-{methyl[(2-oxooxolan-3-yl)methyl]amino}pyridazin-4-yl]amino}pyridin-2-yl)-3-(4-methylpiperazin-1-yl)propanamide]"
7,≤ 0.1 nM,"COC(=O)C1CN(c2nnc(-c3cc(Cl)ccc3F)cc2Nc2ccnc(NC(=O)CN3C[C@@H]4C[C@H]3CN4C)c2)C1 [Example 109, methyl 1-[6-(5-chloro-2-fluorophenyl)-4-[(2-{2-[(1S,4S)-5-methyl-2,5-diazabicyclo[2.2.1]heptan-2-yl]acetamido}pyridin-4-yl)amino]pyridazin-3-yl]azetidine-3-carboxylate]"
8,≤ 0.1 nM,"CN1CCN(CCC(=O)Nc2cc(Nc3cc(-c4cc(Cl)ccc4F)nnc3N(C)CCC(O)C(F)(F)F)ccn2)CC1 (stereo not drawn) [Example 110, N-(4-{[6-(5-chloro-2-fluorophenyl)-3-[methyl(4,4,4-trifluoro-3-hydroxybutyl)amino]pyridazin-4-yl]amino}pyridin-2-yl)-3-(4-methylpiperazin-1-yl)propanamide]"
9,≤ 0.1 nM,"CN1CCN([C@H]2C[C@@H](C(=O)Nc3cc(Nc4cc(-c5cc(Cl)ccc5F)nnc4SCC4COC(C)(C)O4)ccn3)C2)CC1 (stereo partly drawn) [Example 115, Cis N-(4-{[6-(5-chloro-2-fluorophenyl)-3-{[(2,2-dimethyl-1,3-dioxolan-4-yl)methyl]sulfanyl}pyridazin-4-yl]amino}pyridin-2-yl)-3-(4-methylpiperazin-1-yl)cyclobutane-1-carboxamide]"
10,0.126 to 0.316 nM,"CN1CCN(CCC(=O)Nc2cc(Nc3cc(-c4cc(Cl)ccc4F)nnc3OCc3ccc4c(c3)OC(C)(C)O4)ccn2)CC1 [Example 116, N-(4-{[6-(5-chloro-2-fluorophenyl)-3-[(2,2-dimethyl-2H-1,3-benzodioxol-5-yl)methoxy]pyridazin-4-yl]amino}pyridin-2-yl)-3-(4-methylpiperazin-1-yl)propanamide]"
11,≤ 0.1 nM,"CN1CCN([C@H]2C[C@@H](C(=O)Nc3cc(Nc4cc(-c5cc(Cl)ccc5F)nnc4OCc4cccc(O)c4)ccn3)C2)CC1 [Example 119, Cis N-(4-{[6-(5-chloro-2-fluorophenyl)-3-[(3-hydroxyphenyl)methoxy]pyridazin-4-yl]amino}pyridin-2-yl)-3-(4-methylpiperazin-1-yl)cyclobutane-1-carboxamide]"
12,≤ 0.1 nM,"CN1C[C@@H]2C[C@H]1CN2CC(=O)Nc1cc(Nc2cc(-c3cc(Cl)ccc3F)nnc2OCc2cccc(O)c2)ccn1 [Example 120, N-(4-{[6-(5-chloro-2-fluorophenyl)-3-[(3-hydroxyphenyl)methoxy]pyridazin-4-yl]amino}pyridin-2-yl)-2-[(1S,4S)-5-methyl-2,5-diazabicyclo[2.2.1]heptan-2-yl]acetamide]"
13,≤ 0.1 nM,"CN1C[C@@H]2C[C@H]1CN2CC(=O)Nc1cc(Nc2cc(-c3cc(Cl)ccc3F)nnc2OC[C@H]2C[C@@H](O)C2)ccn1 [Example 122, N-(4-{[6-(5-chloro-2-fluorophenyl)-3-[(3-hydroxycyclobutyl)methoxy]pyridazin-4-yl]amino}pyridin-2-yl)-2-[(1S,4S)-5-methyl-2,5-diazabicyclo[2.2.1]heptan-2-yl]acetamide]"
14,0.126 to 0.316 nM,"CN1CCN(CCC(=O)Nc2cc(Nc3cc(-c4cc(Cl)ccc4F)nnc3OC[C@H]3C[C@@](C)(O)C3)ccn2)CC1 [Example 123, N-(4-{[6-(5-chloro-2-fluorophenyl)-3-[(3-hydroxy-3-methylcyclobutyl)methoxy]pyridazin-4-yl]amino}pyridin-2-yl)-3-(4-methylpiperazin-1-yl)propanamide]"
15,≤ 0.1 nM,"CN1CCN([C@H]2C[C@@H](C(=O)Nc3cc(Nc4cc(-c5cc(Cl)ccc5F)nnc4OC[C@H]4C[C@@](C)(O)C4)ccn3)C2)CC1 [Example 124, Cis N-(4-{[6-(5-chloro-2-fluorophenyl)-3-[(3-hydroxy-3-methylcyclobutyl)methoxy]pyridazin-4-yl]amino}pyridin-2-yl)-3-(4-methylpiperazin-1-yl)cyclobutane-1-carboxamide]"
16,0.126 to 0.316 nM,"COC(=O)C12CC(COc3nnc(-c4cc(Cl)ccc4F)cc3Nc3ccnc(NC(=O)CCN4CCN(C)CC4)c3)(C1)C2 [Example 125, methyl 3-({[6-(5-chloro-2-fluorophenyl)-4-({2-[3-(4-methylpiperazin-1-yl)propanamido]pyridin-4-yl}amino)pyridazin-3-yl]oxy}methyl)bicyclo[1.1.1]pentane-1-carboxylate]"
17,≤ 0.1 nM,"COC(=O)C12CC(COc3nnc(-c4cc(Cl)ccc4F)cc3Nc3ccnc(NC(=O)[C@H]4C[C@@H](N5CCN(C)CC5)C4)c3)(C1)C2 [Example 126, Cis methyl 3-({[6-(5-chloro-2-fluorophenyl)-4-({2-[(1s,3s)-3-(4-methylpiperazin-1-yl)cyclobutaneamido]pyridin-4-yl}amino)pyridazin-3-yl]oxy}methyl)bicyclo[1.1.1]pentane-1-carboxylate]"
18,0.126 to 0.316 nM,"CCOC(=O)C(C)(C)CN(C)c1nnc(-c2cc(Cl)ccc2F)cc1Nc1ccnc(NC(=O)CCN2CCN(C)CC2)c1 [Example 145, ethyl 3-{[6-(5-chloro-2-fluorophenyl)-4-({2-[3-(4-methylpiperazin-1-yl)propanamido]pyridin-4-yl}amino)pyridazin-3-yl](methyl)amino}-2,2-dimethylpropanoate]"
